# Experimental data reported in patent US9550796B2, “Pyrrolopyrrolone derivatives and their use as BET inhibitors” (NOVARTIS AG, priority 2013, dated 2017).
# What was measured:
# [1] = biological target: BRD2 (Homo sapiens (Human), UniProt P25440); test: TR-FRET in-vitro binding assay for BRD2; settings: 45 nM His-Brd2(60-472), acetyl-histone H4 (AcK 5, 8, 12, 16) peptide
# Procedure: TR-FRET In-Vitro Binding Assays for BRD2, BRD3, and BRD4: All assays were performed in 384-well microtiter plates. […] Liquid handling and incubation steps were done on an Innovadyne Nanodrop Express equipped with a robotic arm (Thermo CatX, Perkin Elmer/Caliper Twister II) and an incubator (Liconic STX40, Thermo Cytomat 2C450). The assay plates were prepared by addition of 50 nl per well of compound solution in 90% DMSO HummingBird nanodispenser (Zinsser Analytic). […] Reactions were incubated at 30° C. for 35 minutes. […] After 35 minutes incubation at 30° C., plates were measured in a Perkin Elmer EnVision multilabel reader. […] The stock solutions were stored at […] if not used immediately. For the test procedure the vials were defrosted and identified by a scanner whereby a working sheet was generated that guided the subsequent working steps. Compound dilutions were made in 96 well plates. This format enabled the assay of maximally […] at 8 concentrations (single points) including 4 reference compounds, if desired (known BET inhibitors from the prior art, for this and other assays of the type disclosed herein). The dilution protocol included the production of “pre-dilution plates”, “master plates” and “assay plates”. Polypropylene 96-well plates were used as pre-dilution plates. […] All dilution steps were done on a HamiltonSTAR robot. […] Identical “assay plates” were then prepared by pipetting 50 nL each of compound dilutions of the “master plates” into 384-well “assay plates” by means of a HummingBird 384-channel dispenser. These plates were used directly for the assay which was performed in a total volume of 13.55 μL.
# [2] = biological target: CREBBP (Homo sapiens (Human), UniProt Q92793); test: AlphaScreen in-vitro binding assay for CREBBP; settings: 324 nM His-CREBBP (1081-1197), acetyl-histone H4 (AcK 5, 8, 12) peptide
# Chain of CREBBP (Q92793 1081-1197): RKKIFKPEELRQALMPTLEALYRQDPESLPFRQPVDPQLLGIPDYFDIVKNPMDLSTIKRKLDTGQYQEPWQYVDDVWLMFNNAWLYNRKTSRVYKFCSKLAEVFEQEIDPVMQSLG
# Procedure, shortened: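 IC50 values were derived by non-linear regression of percent inhibition across 8 compound concentrations. Protein was His-tagged CREBBP bromodomain (1081-1197), peptide acetyl-histone H4 (AcK 5, 8, 12), in HEPES pH 7.5 buffer. Read-out was AlphaScreen with Ni-chelate acceptor and streptavidin donor beads, 35 min at 30° C then 60 min at RT.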
# [3] = biological target: BRD3 (Homo sapiens (Human), UniProt Q15059); test: TR-FRET in-vitro binding assay for BRD3; settings: 45 nM His-Brd3(20-477), acetyl-histone H4 (AcK 5, 8, 12, 16) peptide
# Chain of BRD3 (Q15059 20-477): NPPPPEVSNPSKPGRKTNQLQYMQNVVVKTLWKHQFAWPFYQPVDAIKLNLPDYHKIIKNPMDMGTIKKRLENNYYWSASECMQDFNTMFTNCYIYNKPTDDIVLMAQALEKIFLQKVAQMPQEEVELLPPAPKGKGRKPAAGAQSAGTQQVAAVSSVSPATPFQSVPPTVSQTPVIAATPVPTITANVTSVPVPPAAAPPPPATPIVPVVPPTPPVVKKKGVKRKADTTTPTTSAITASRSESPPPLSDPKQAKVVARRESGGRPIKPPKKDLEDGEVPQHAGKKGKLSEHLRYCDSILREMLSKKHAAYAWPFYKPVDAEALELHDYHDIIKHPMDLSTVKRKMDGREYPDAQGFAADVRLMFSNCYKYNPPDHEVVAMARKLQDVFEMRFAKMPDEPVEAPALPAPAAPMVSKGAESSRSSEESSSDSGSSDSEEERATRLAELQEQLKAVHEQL
# Procedure, shortened: (§1)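 TR-FRET binding read after 35 min incubation at 30° C. Compounds dispensed from 90% DMSO solutions and tested at 8 concentrations in a 13.55 μL total reaction volume.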
# [4] = test system: THP-1; test: Cell growth inhibition assay (CellTiter-Glo), THP-1; type: cell-based, human; settings: THP-1 cells, 4 days; for GI50: Homo sapiens, 96 h, half-maximal growth inhibition; for THP-1 TGI: total growth inhibition
# Procedure, shortened: (§2)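 A separate day 0 plate allows cytotoxic and cytostatic effects to be distinguished: viable-cell ATP after 4-day compound treatment (top 10 μM, 3-fold steps) is expressed relative to it. DMSO-only wells count as 100% and medium-only wells as −100%.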
# [5] = biological target: BRD4 (Homo sapiens (Human), UniProt O60885); test: TR-FRET in-vitro binding assay for BRD4; settings: 45 nM His-Brd4(44-477), acetyl-histone H4 (AcK 5, 8, 12, 16) peptide
# Procedure, shortened: as §1
# [6] = test system: MV-4-11; test: Cell growth inhibition assay (CellTiter-Glo), MV-4-11; type: cell-based, human; settings: MV-4-11 cells, 4 days; for GI50: Homo sapiens, MV4-11, 96 h, half-maximal growth inhibition; for MV-4-11 TGI: total growth inhibition
# Procedure, shortened: as §2
# [7] = test system: K-562; test: Cell growth inhibition assay (CellTiter-Glo), K-562; type: cell-based, human; settings: K-562 cells, 4 days; for GI50: Homo sapiens, K562, 96 h, half-maximal growth inhibition; for K-562 TGI: total growth inhibition
# Procedure, shortened: as §2
# Chain of BRD2 (P25440 60-472): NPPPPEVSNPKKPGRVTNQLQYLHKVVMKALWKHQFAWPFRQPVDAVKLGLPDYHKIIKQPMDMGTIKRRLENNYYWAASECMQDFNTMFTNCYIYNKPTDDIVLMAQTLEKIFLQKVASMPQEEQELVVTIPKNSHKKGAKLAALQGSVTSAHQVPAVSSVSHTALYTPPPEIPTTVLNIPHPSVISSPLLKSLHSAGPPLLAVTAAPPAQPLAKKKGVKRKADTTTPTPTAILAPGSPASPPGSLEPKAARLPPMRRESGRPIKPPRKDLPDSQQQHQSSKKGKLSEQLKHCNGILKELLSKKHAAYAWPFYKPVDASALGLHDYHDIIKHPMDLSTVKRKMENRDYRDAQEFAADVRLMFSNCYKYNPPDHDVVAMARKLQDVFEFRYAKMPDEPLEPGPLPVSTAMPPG
Structure (SMILES),IC50 [1],IC50 [2],IC50 [3],GI50 [4],IC50 [5],GI50 [6],GI50 [7],THP-1 TGI [4],MV-4-11 TGI [6],K-562 TGI [7]
"Cc1cn(C(=O)N(C)C)c2c1C(=O)N(c1cc(C)c3nnc(C)n3c1)C2c1ccc(Cl)cc1 (stereo not drawn) [Example 10, 6-(4-chlorophenyl)-5-(3,8-dimethyl-[1,2,4]triazolo[4,3-a]pyridin-6-yl)-N,N,3-trimethyl-4-oxo-5,6-dihydropyrrolo[3,4-b]pyrrole-1(4H)-carboxamide]",55 nM,14500 nM,34 nM,29.8 nM,33 nM,19.4 nM,102 nM,69.85 nM,36.25 nM,>10000 nM
"COCCn1cc(C)c2c1C(c1ccc(Cl)cc1)N(c1cc(C)c3nnc(C)n3c1)C2=O (stereo not drawn) [Example 13, 6-(4-chlorophenyl)-5-(3,8-dimethyl-[1,2,4]triazolo[4,3-a]pyridin-6-yl)-1-(2-methoxyethyl)-3-methyl-5,6-dihydropyrrolo[3,4-b]pyrrol-4(1H)-one]",71 nM,13700 nM,67 nM,17.6 nM,62 nM,12.7 nM,73.6 nM,38.9 nM,24.85 nM,>10000 nM
"Cc1cn(CCO)c2c1C(=O)N(c1cc(C)c3nnc(C)n3c1)C2c1ccc(Cl)cc1 (stereo not drawn) [Example 14, 6-(4-chlorophenyl)-5-(3,8-dimethyl-[1,2,4]triazolo[4,3-a]pyridin-6-yl)-1-(2-hydroxyethyl)-3-methyl-5,6-dihydropyrrolo[3,4-b]pyrrol-4(1H)-one]",23 nM,6600 nM,25 nM,35.6 nM,22 nM,14.6 nM,115 nM,81.55 nM,30.85 nM,>10000 nM
"Cc1cc(N2C(=O)c3c(C4CC4)cn(C4CN(C)C4)c3C2c2ccc(Cl)cc2)cn2c(C)nnc12 (stereo not drawn) [Example 16, 6-(4-chlorophenyl)-3-cyclopropyl-5-(3,8-dimethyl-[1,2,4]triazolo[4,3-a]pyridin-6-yl)-1-(1-methylazetidin-3-yl)-5,6-dihydropyrrolo[3,4-b]pyrrol-4(1H)-one]",14 nM,5000 nM,19 nM,11.7 nM,14 nM,3.81 nM,45.2 nM,35.5 nM,12.4 nM,>10000 nM
"Cc1cn(C2CN(C)C2)c2c1C(=O)N(c1cc(C)c3nnn(C)c3n1)C2c1ccc(Cl)cc1 (stereo not drawn) [Example 20, 6-(4-chlorophenyl)-5-(3,7-dimethyl-3H-[1,2,3]triazolo[4,5-b]pyridin-5-yl)-3-methyl-1-(1-methylazetidin-3-yl)-5,6-dihydropyrrolo[3,4-b]pyrrol-4(1H)-one]",23 nM,> 37000 nM,20 nM,12.9 nM,16 nM,7.89 nM,63.4 nM,38 nM,21.25 nM,>10000 nM

# Second part, led by results:
IC50 [1],IC50 [2],IC50 [3],GI50 [4],IC50 [5],GI50 [6],GI50 [7],Structure (SMILES),THP-1 TGI [4],MV-4-11 TGI [6],K-562 TGI [7]
40 nM,6000 nM,23 nM,10.6 nM,17 nM,6.74 nM,50.5 nM,"Cc1cn(C2COC2)c2c1C(=O)N(c1cc(C)c3nnc(C)n3c1)C2c1ccc(Cl)cc1 (stereo not drawn) [Example 6, 6-(4-chlorophenyl)-5-(3,8-dimethyl-[1,2,4]triazolo[4,3-a]pyridin-6-yl)-3-methyl-1-(oxetan-3-yl)-5,6-dihydropyrrolo[3,4-b]pyrrol-4(1H)-one]",29.25 nM,21.4 nM,>10000 nM
32 nM,7600 nM,16 nM,196 nM,17 nM,50.2 nM,2060 nM,"CC(=O)N1CC(n2cc(C)c3c2C(c2ccc(Cl)cc2)N(c2cc(C)c4nnc(C)n4c2)C3=O)C1 (stereo not drawn) [Example 7, 1-(1-acetylazetidin-3-yl)-6-(4-chlorophenyl)-5-(3,8-dimethyl-[1,2,4]triazolo[4,3-a]pyridin-6-yl)-3-methyl-5,6-dihydropyrrolo[3,4-b]pyrrol-4(1H)-one]",449.5 nM,135.8 nM,>10000 nM
41 nM,5100 nM,34 nM,41.6 nM,18 nM,25.2 nM,132 nM,"CCOC(=O)N1CC(n2cc(C)c3c2C(c2ccc(Cl)cc2)N(c2cc(C)c4nnc(C)n4c2)C3=O)C1 (stereo not drawn) [Example 8, Ethyl 3-(6-(4-chlorophenyl)-5-(3,8-dimethyl-[1,2,4]triazolo[4,3-a]pyridin-6-yl)-3-methyl-4-oxo-5,6-dihydropyrrolo[3,4-b]pyrrol-1(4H)-yl)azetidine-1-carboxylate]",93.95 nM,37.75 nM,>10000 nM
28 nM,6000 nM,15 nM,17.1 nM,24 nM,13 nM,78.7 nM,"CNC(=O)n1cc(C)c2c1C(c1ccc(Cl)cc1)N(c1cc(C)c3nnc(C)n3c1)C2=O (stereo not drawn) [Example 9, 6-(4-chlorophenyl)-5-(3,8-dimethyl-[1,2,4]triazolo[4,3-a]pyridin-6-yl)-N,3-dimethyl-4-oxo-5,6-dihydropyrrolo[3,4-b]pyrrole-1(4H)-carboxamide]",43.3 nM,26.75 nM,>10000 nM
39 nM,7300 nM,50 nM,26 nM,38 nM,18.7 nM,113 nM,"CCOC(=O)n1cc(C)c2c1C(c1ccc(Cl)cc1)N(c1cc(C)c3nnc(C)n3c1)C2=O (stereo not drawn) [Example 11, Ethyl 6-(4-chlorophenyl)-5-(3,8-dimethyl-[1,2,4]triazolo[4,3-a]pyridin-6-yl)-3-methyl-4-oxo-5,6-dihydropyrrolo[3,4-b]pyrrole-1(4H)-carboxylate]",58.95 nM,31.55 nM,>10000 nM
80 nM,23900 nM,52 nM,219 nM,54 nM,74.8 nM,1050 nM,"COCC(=O)N1CC(n2cc(C)c3c2C(c2ccc(Cl)cc2)N(c2cc(C)c4nnc(C)n4c2)C3=O)C1 (stereo not drawn) [Example 12, 6-(4-chlorophenyl)-5-(3,8-dimethyl-[1,2,4]triazolo[4,3-a]pyridin-6-yl)-1-(1-(2-methoxyacetyl)azetidin-3-yl)-3-methyl-5,6-dihydropyrrolo[3,4-b]pyrrol-4(1H)-one]",618.5 nM,149 nM,>10000 nM
< 11 nM,4100 nM,< 11 nM,43.3 nM,< 11 nM,11.1 nM,230 nM,"CC(=O)N1CC(n2cc(C3CC3)c3c2C(c2ccc(Cl)cc2)N(c2cc(C)c4nnc(C)n4c2)C3=O)C1 (stereo not drawn) [Example 17, 1-(1-acetylazetidin-3-yl)-6-(4-chlorophenyl)-3-cyclopropyl-5-(3,8-dimethyl-[1,2,4]triazolo[4,3-a]pyridin-6-yl)-5,6-dihydropyrrolo[3,4-b]pyrrol-4(1H)-one]",168 nM,34.85 nM,>10000 nM
